Values joined by “and” are separate entries in the source; they are usually repeats but may differ in a detail not shown here. Equal entries are not always repeated.
System: serum levels of 58 analytes
Experiment: Serum biomarker analysis, quantitative immunoassay multi-analyte profiling (Rules-Based Medicine RodentMAP v2.9), AA#80
Format: in vivo, mouse
Conditions: serum, listed as Human LgG1 Control
Method: In AA#80, serum samples were collected on Day 27, Day 34, Day 41 and Day 55 via the submandibular vein. Approximately 200 μL of blood per mouse was collected in Microtainer® serum separator tubes. Serum was removed following centrifugation and stored at <−65° C. until analysis.
Selected serum samples were sent to Rules-Based Medicine (Austin, Tex.) for quantitative immunoassay multi-analyte profiling of serum samples, with the goal of identifying biomarkers that could be used to monitor disease progression and response to B7-H4-Ig treatment. Day 27, Day 34, and Day 41 sera from the three representative mice in the B7-H4-Ig group (tag #3332, 3334, and 3338) and three representative mice in the Synagis® group (tag #3324, 3329, and 3330) were analyzed for levels of 58 analytes using the RodentMAP v2.9 Testing Service.
Data from the Rules-Based Medicine analysis was analyzed using Microsoft Excel and GraphPad Prism software. T-tests were performed to compare the levels of each analyte in the B7-H4-Ig versus Synagis® treated samples. No correction was made for multiple comparisons. Additionally, correlation coefficients were calculated for each analyte versus disease score.

Synagis®: humanized monoclonal IgG antibody against the F protein of Respiratory Syncytial Virus; used as a human IgG1 isotype control [reference compound]
MDC (Macrophage-Derived Chemokine) (Day 41, LDD 21.85): 1410 pg/mL and 1430 pg/mL and 1150 pg/mL | MCP-3 (Monocyte Chemoattractant Protein-3) (Day 41, LDD 31.36): 235 pg/mL and 236 pg/mL and 242 pg/mL | VEGF (Vescular Endotheial Cell Growth Factor) (Day 41, LDD 38.2): 150 pg/mL and 171 pg/mL and 212 pg/mL | IP-10 (Inducible Protein-10) (Day 41, LDD 40.28): 54.7 pg/mL and 68.1 pg/mL and 66.8 pg/mL | LIF (Leukemia Infabitory Factor) (Day 41, LDD 43.6): 1650 pg/mL and 1580 pg/mL and 1470 pg/mL | MCP-5 (Monocyte Chemoattractant Protein-5) (Day 41, LDD 46.38): 45.6 pg/mL and 47.4 pg/mL and 52.8 pg/mL | SCF (Stem Cell Factor) (Day 41, LDD 75.17): 214 pg/mL and 249 pg/mL and 201 pg/mL | MIP-1beta (Macrophage Inflammatory Protein-1beta) (Day 41, LDD 77.65): 144 pg/mL and 115 pg/mL and 152 pg/mL | Lymphotactin (Day 41, LDD 85.48): 178 pg/mL and 183 pg/mL and 194 pg/mL | VWF (Von Willebrand Factor) (Day 41, LDD 98.6): 131 ng/mL and 103 ng/mL and 111 ng/mL | M-CSF (Macrophage-Colony Stimulating Factor) (Day 27, LDD 0.01795, individual mice): 6.19 ng/mL and 6.6 ng/mL and 6.59 ng/mL | MIP-1gamma (Macrophage Inflammatory Protein-1gamma) (Day 27, LDD 0.0736, individual mice): 36.9 ng/mL and 37.1 ng/mL and 37.9 ng/mL | OSM (Oncostatin M) (Day 27, LDD 0.13, individual mice): <low> (2×) and 0.0103 ng/ml | TNF-alpha (Tumor Necrosis Factor-alpha) (Day 27, LDD 0.137, individual mice): 0.0965 ng/ml and <low> (2×) | KC/GROalpha (Melanoma Growth Stimulatory Activity Protein) (Day 27, LDD 0.1739, individual mice): 0.0804 ng/mL and 0.0795 ng/mL and 0.0633 ng/mL | TEMP-1 (Tissue Inhibitor of Metalicproteinase Type-1) (Day 27, LDD 0.18, individual mice): 1.38 ng/mL and 1.13 ng/mL and 1.23 ng/mL | IL-5 (Interleukin-5) (Day 27, LDD 0.194, individual mice): 0.438 ng/mL and 0.403 ng/mL and 0.264 ng/mL | MIP-1alpha (Macrophage Inflammatory Protein-1alpha) (Day 27, LDD 0.2255, individual mice): 3.03 ng/ml (2×) and 3.32 ng/ml | IL-7 (Interleukin-7) (Day 27, LDD 0.309, individual mice): 0.0593 ng/ml and <low> (2×) | MIP-3beta (Macrophage Inflammatory Protein-3beta) (Day 27, LDD 0.465, individual mice): 2.89 ng/mL and 3.05 ng/mL and 2.6 ng/mL | RANTCS (Regulation Upon Activation Normal T-Cell Expressed and Secreted) (Day 27, LDD 0.5, individual mice): 0.0826 pg/ml and <low> (2×) | Tissue Factor (Day 27, LDD 0.5175, individual mice): 9.17 ng/ml (2×) and 10 ng/ml | MPO (Myeloperoxidase) (Day 27, LDD 0.95, individual mice): 216 ng/mL and 191 ng/mL and 265 ng/mL | SGOT (Serum Glutamic-Oxaloacetic Transaminase) (Day 27, LDD 1.86, individual mice): 84.6 µg/mL and 79.7 µg/mL and 75.4 µg/mL | TPO (Thromboproletin) (Day 27, LDD 2.66, individual mice): 38.9 ng/ml (2×) and 34.2 ng/ml | SAP (Setrum Amtyloid P) (Day 27, LDD 5.4, individual mice): 40.5 µg/mL and 34.2 µg/mL and 42.9 µg/mL | MIP-2 (Macrophage Inflammatory Protein-2) (Day 27, LDD 7.174, individual mice): 16.1 pg/mL and 22.2 pg/mL and 23.4 pg/mL | MMP-9 (Matrix Metalloproteinase-9) (Day 27, LDD 10, individual mice): 166 ng/mL and 177 ng/mL and 431 ng/mL | IL-6 (Interleukin-6) (Day 27, LDD 13.852, individual mice): 6.27 pg/ml (2×) and <low> | MCP-1 (Monocyte Chemoattractant Protein-1) (Day 27, LDD 16.924, individual mice): 74.4 pg/mL and 64.7 pg/mL and 70.5 pg/mL | VCAM-1 (Vescular Cell Adhesion Molecule-1) (Day 27, LDD 19, individual mice): 2260 ng/mL and 2080 ng/mL and 3160 ng/mL | MDC (Macrophage-Derived Chemokine) (Day 27, LDD 21.85, individual mice): 1250 pg/mL and 1310 pg/mL and 1070 pg/mL | Myoglobin (Day 27, LDD 24, individual mice): 8.96 ng/mL and 11.4 ng/mL and 23.8 ng/mL | MCP-3 (Monocyte Chemoattractant Protein-3) (Day 27, LDD 31.36, individual mice): 168 pg/mL and 149 pg/mL and 138 pg/mL | VEGF (Vescular Endotheial Cell Growth Factor) (Day 27, LDD 38.2, individual mice): 144 pg/mL and 136 pg/mL and 139 pg/mL | IP-10 (Inducible Protein-10) (Day 27, LDD 40.28, individual mice): 45.3 pg/mL and 52 pg/mL and 55.5 pg/mL | LIF (Leukemia Infabitory Factor) (Day 27, LDD 43.6, individual mice): 1650 pg/mL and 1390 pg/mL and 1470 pg/mL | MCP-5 (Monocyte Chemoattractant Protein-5) (Day 27, LDD 46.38, individual mice): 35.7 pg/mL and 37.1 pg/mL and 35.5 pg/mL | SCF (Stem Cell Factor) (Day 27, LDD 75.17, individual mice): 226 pg/mL and 207 pg/mL and 220 pg/mL | MIP-1beta (Macrophage Inflammatory Protein-1beta) (Day 27, LDD 77.65, individual mice): 173 pg/ml (2×) and 150 pg/ml | Lymphotactin (Day 27, LDD 85.48, individual mice): 198 pg/mL and 178 pg/mL and 189 pg/mL | VWF (Von Willebrand Factor) (Day 27, LDD 98.6, individual mice): 125 ng/mL and 131 ng/mL and 155 ng/mL

Source: US9011853B2, “B7-H4 fusion proteins and methods of use thereof” (Amplimmune, Inc., priority 2009, dated 2015)
